According to patent publication US20240374739A1, “BILE ACID CONJUGATE” (Curtin University, priority 2021, published 2024):

Tested on: Caspase 3/9 protein
Assay: Caspase assay
Type: cell-based
Conditions: OC-1 cells under stressful, toxic conditions (FIG. 31)
Procedure: The caspase assay was carried as per manufacturer's instructions (abcam, NSW, Australia), as described below.
• Collagen coated cover slip • Fixing agent: 4% paraformaldehyde • Permeabilization agent 0.5% of Tween 20 or trition-X 100 diluted in PBS • Blocking: 1% BSA in PBST may also be used. • PBST: 0.1% Tween 20 in PBS • Primary abs (1:500 in PBS) • Secondary abs (1:1000 in PBS) • Hoechst (Nuclear stain)
First day: Fixation, permeabilize, blocking and add a primary antibody to the cells, as described below:
• Start by aspirating culture medium from each well followed by fixation of the cells with 4% Using 4% paraformaldehyde in PBS pH 7.4 for 10 min at room temperature. (Add one ml in each well). • Shake a plate for a few seconds.
0.5% of Tween 20 or trition-X 100 diluted in PBS. […]
• Make coverslips ready to be mounted onto microscope slides. • Take a clean slide and dispense one drop of antifade mounting medium by slowly from the pipette into the slide. • Carefully remove a coverslip from the well and allow excess wash to drip off and place the cells face down onto the slide. • Clear fingernail polish can be used to seal the coverslip and prevent it from drying out. • Visualized slide under microscope. […]

Q: `CC(=O)O[C@@H]1CC[C@@]2(C)[C@H](CC[C@@H]3[C@@H]2CC[C@]2(C)[C@@H]([C@H](C)CCC(=O)Oc4c(C(C)(C)C)cc(SC(C)(C)Sc5cc(C(C)(C)C)c(O)c(C(C)(C)C)c5)cc4C(C)(C)C)CC[C@@H]32)C1` [HA-1, 2,6-di-tert-butyl-4-((2-((3,5-di-tert-butyl-4-hydroxyphenyl)thio)propan-2-yl)thio)phenyl (4R)-4-[(3R,5R,8R,9S,10S,13R,14S,17R)-3-acetoxy-10,13-dimethyl-2,3,4,5,6,7,8,9,11,12,14,15,16,17-tetradecahydro-1H-cyclopenta[a]phenanthren-17-yl]pentanoate] was tested. Which “protection against programmed cell death (caspase-3 activation) / viable cell population” value did it give?
A: significant protection against programmed cell death
